The compounds below were run against CDK8/cyclin C (Homo sapiens (Human), UniProt P49336) (assay: LanthaScreen Eu Kinase Binding Assay for CDK8/cyclin C). Settings: 10-point curve, 4-fold dilution series, 60 min at room temperature.
Sequence of CDK8/cyclin C (P49336 whole entry, looked up): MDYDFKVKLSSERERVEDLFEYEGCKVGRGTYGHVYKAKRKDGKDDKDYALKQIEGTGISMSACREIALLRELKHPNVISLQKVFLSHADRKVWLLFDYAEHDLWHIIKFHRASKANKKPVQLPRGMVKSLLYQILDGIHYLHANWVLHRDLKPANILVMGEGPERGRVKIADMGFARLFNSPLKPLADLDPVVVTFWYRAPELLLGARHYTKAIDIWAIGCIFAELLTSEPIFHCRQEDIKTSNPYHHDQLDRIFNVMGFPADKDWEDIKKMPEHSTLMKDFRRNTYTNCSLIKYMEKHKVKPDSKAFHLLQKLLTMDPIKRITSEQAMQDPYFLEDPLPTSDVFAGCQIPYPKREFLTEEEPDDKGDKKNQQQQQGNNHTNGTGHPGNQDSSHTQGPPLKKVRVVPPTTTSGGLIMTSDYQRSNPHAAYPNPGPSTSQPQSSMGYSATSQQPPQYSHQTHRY
Sequence of CDK8/cyclin C (P24863 whole entry partner, looked up): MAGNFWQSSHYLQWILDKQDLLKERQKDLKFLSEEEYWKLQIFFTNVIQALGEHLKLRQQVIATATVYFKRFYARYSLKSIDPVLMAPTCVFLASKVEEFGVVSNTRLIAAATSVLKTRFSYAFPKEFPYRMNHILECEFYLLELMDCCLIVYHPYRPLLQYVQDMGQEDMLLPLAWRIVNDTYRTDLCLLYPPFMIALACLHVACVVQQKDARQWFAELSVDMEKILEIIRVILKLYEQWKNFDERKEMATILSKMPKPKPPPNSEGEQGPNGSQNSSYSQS

| SMILES | IC50 [nM] |
| --- | --- |
| O=C1NCCC12CCN(c1c(-c3ccc4scnc4c3)cnc3[nH]ccc13)CC2 [Compound 002, 8-(5-(benzo[d]thiazol-5-yl)-1H-pyrrolo[2,3-b]pyridin-4-yl)-2,8-diazaspiro[4.5]decan-1-one] | 6.46 |
| O=C1NCCC12CCN(c1c(-c3ccc4ncsc4c3)cnc3[nH]ccc13)CC2 [Compound 004, 8-(5-(benzo[d]thiazol-6-yl)-1H-pyrrolo[2,3-b]pyridin-4-yl)-2,8-diazaspiro[4.5]decan-1-one] | 24.5 |
| Cn1cnc2cc(-c3cnc4[nH]ccc4c3N3CCC4(CCNC4=O)CC3)ccc21 [Compound 005, 8-(5-(1-methyl-1H-benzo[d]imidazol-5-yl)-1H-pyrrolo[2,3-b]pyridin-4-yl)-2,8-diazaspiro[4.5]decan-1-one] | 32.2 |
| Cn1ncc2cc(-c3cnc4[nH]ccc4c3N3CCC4(CCCNC4=O)CC3)ccc21 [Compound 006, 9-(5-(1-methyl-1H-indazol-5-yl)-1H-pyrrolo[2,3-b]pyridin-4-yl)-2,9-diazaspiro[5.5]undecan-1-one] | 3 |
| O=C1NCCC12CCN(c1c(-c3ccc4ncnn4c3)cnc3[nH]ccc13)CC2 [Compound 007, 8-(5-([1,2,4]triazolo[1,5-a]pyridin-6-yl)-1H-pyrrolo[2,3-b]pyridin-4-yl)-2,8-diazaspiro[4.5]decan-1-one] | 274 |
| O=C1NCCC12CCN(c1c(-c3ccc4[nH]cnc4c3)cnc3[nH]ccc13)CC2 [Compound 008, 8-(5-(1H-benzo[d]imidazol-5-yl)-1H-pyrrolo[2,3-b]pyridin-4-yl)-2,8-diazaspiro[4.5]decan-1-one] | 4.97 |
| O=C1NCCC12CCN(c1c(-c3ccn4ccnc4c3)cnc3[nH]ccc13)CC2 [Compound 009, 8-(5-(imidazo[1,2-a]pyridin-7-yl)-1H-pyrrolo[2,3-b]pyridin-4-yl)-2,8-diazaspiro[4.5]decan-1-one] | 76.4 |
| Cn1ncc2cc(-c3cnc4[nH]ccc4c3N3CCC4(CC3)CNC4=O)ccc21 [Compound 010, 7-(5-(1-methyl-1H-indazol-5-yl)-1H-pyrrolo[2,3-b]pyridin-4-yl)-2,7-diazaspiro[3.5]nonan-1-one] | 6.3 |
| Cn1ncc2cc(-c3cnc4[nH]ccc4c3N3CCC4(CC3)CNC(=O)O4)ccc21 [Compound 011, 8-(5-(1-methyl-1H-indazol-5-yl)-1H-pyrrolo[2,3-b]pyridin-4-yl)-1-oxa-3,8-diazaspiro[4.5]decan-2-one] | 7 |
| Cn1ncc2cc(-c3cnc4[nH]ccc4c3N3CCC4(CC3)NC(=O)NC4=O)ccc21 [Compound 014, 8-(5-(1-methyl-1H-indazol-5-yl)-1H-pyrrolo[2,3-b]pyridin-4-yl)-1,3,8-triazaspiro[4.5]decane-2,4-dione] | 3 |
| Cn1ncc2cc(-c3cnc4[nH]cnc4c3N3CCC4(CCNC4=O)CC3)ccc21 [Compound 016, 8-(6-(1-methyl-1H-indazol-5-yl)-3H-imidazo[4,5-b]pyridin-7-yl)-2,8-diazaspiro[4.5]decan-1-one] | 10 |
| Cn1ncc2cc(-c3cnc4[nH]ccc4c3N3CCC4(CCNC4=O)C3)ccc21 (stereo not shown) [Compound 017, 7-(5-(1-methyl-1H-indazol-5-yl)-1H-pyrrolo[2,3-b]pyridin-4-yl)-2,7-diazaspiro[4.4]nonan-1-one] | 55 |
| Cn1ncc2cc(-c3cnc4[nH]cc(Cl)c4c3N3CCC4(CCNC4=O)CC3)ccc21 [Compound 018, 8-(3-chloro-5-(1-methyl-1H-indazol-5-yl)-1H-pyrrolo[2,3-b]pyridin-4-yl)-2,8-diazaspiro[4.5]decan-1-one] | 1.73 |
| Cn1ncc2cc(-c3cnc4sccc4c3N3CCC4(CCNC4=O)CC3)ccc21 [Compound 019, 8-(5-(1-methyl-1H-indazol-5-yl)thieno[2,3-b]pyridin-4-yl)-2,8-diazaspiro[4.5]decan-1-one] | 206 |
| Cn1ncc2cc(-c3cnc4[nH]nc(Cl)c4c3N3CCC4(CCNC4=O)CC3)ccc21 [Compound 020] | 1.37 |
| Cc1n[nH]c2ncc(-c3ccc4c(cnn4C)c3)c(N3CCC4(CCNC4=O)CC3)c12 [Compound 021] | 36 |

— patent US12410194B2, “Potent and selective azaindole inhibitors of CDK8 and CDK19” (priority 2019, dated 2025)
